# Laboratory results reported in US8877819B2, “Methods for treating heat stress and related compositions” (Georgetown University, priority 2008, dated 2014).
# Key:
# IL-6 = assay: Cytokine assay (ELISA), IL-6; type: in vivo, Zucker Fatty Rats; details: Experiment 2
# Description: (§1) Various cytokines were measured by ELISA methodology using kits from the following sources: rat MCP-1—Assay Designs Inc., Ann Arbor, Mich.; rat adiponectin—ALPCO Diagnostics, Salem, N.H.; TNF-a, ALPCO Diagnostics, Salem, N.H.; RAT IL-1B—Assay Designs Inc, Ann Arbor, Mich.; RAT IL-6—ALPCO Diagnostics, Salem, N.H.
# Zucker Fatty Rats (ZFR) [1] = assay: Blood pressure and cardiac rate by tail plethysmography; type: in vivo; details: for SBP over the last month vs control / SBP after heat stress: Experiment 1; for SBP after heat stress: survivors, 12 days after heat stress; for DBP / SBP / Cardiac rate: 60 days; for Cardiac rate: in beats/min (unit assumed)
# Description: For two experiments, a total of 96 Zucker Fatty Rats (ZFR) (Charles River, Wilmington, Mass.) were used: 48 in each experiment were divided into four groups of 12 rats. Initial body weights ranged between 434 and 624 g in the first experiment and between 388 and 520 g in the second. All rats consumed a regular rat diet in crushed form (Purina Rat Chow, Ralston Purina, St. Louis, Mo.). Sucrose was added to the pulverized regular rat chow (30%, w/w). The four groups comprised a control eating the described diet and three test groups eating the same diet but with the addition of captopril or astaxanthin (two different doses). […] The amount of astaxanthin added was based on 2% (w/w) content of astaxanthin to powder. The first study continued for 57 days while the second continued for 75 days. SBP was measured by tail plethysmography using two different instruments. As in many previous studies, an instrument from Narco Biosciences (Houston, Tex.) was used. This allowed for rapid measurement SBP with a beeper sound system. The second reading was performed on an instrument obtained from Kent Scientific Corporation (Torrington, Conn.). The latter is a computerized, non-invasive tail cuff acquisition system that utilizes a specially-designed differential pressure transducer to non-invasively measure the blood volume in the tail. This instrument not only records SBP, but also provides measurements of mean blood pressure (MBP), diastolic blood pressure (DBP), and cardiac rate. The two instruments were used interchangeably. Previous experience has shown that the SBP readings were virtually the same by either instrument. Rats were allowed free access to their diet and water until SBP readings were obtained between 13.00 h and 17.00 h after a slight warming. Multiple readings on individual rats were taken. To be accepted, SBP measurements on a given rat had to be stable (consistently within 5 mm Hg).
# angiotensin-2 = assay: Serum angiotensin-2 levels (radioimmunoassay); type: in vivo, Zucker Fatty Rats
# Description: Serum angiotensin-2 was trapped by octylminicolumns (Amprep-C8, 500 mg, Amersham, Buckingshire, UK). Each minicolumn was prewashed with 5 mL of 100% methanol and then with 10 mL of 0.1% trifluoroacetic acid (TFA) in distilled water. After the serum was passed through the minicolumn, it was washed with 0.1% TFA again. […] Samples were collected and dried in a vacuum centrifuge and dissolved in 0.1M Tris-acetate buffer (pH 7.4) containing 2.6 mM disodium salt of ethylenediaminetetra-acetic acid (EDTA), 1 mM phenylmethylsulphonyl fluoride, and 0.1% bovine serum albumin.
# Angiotensin-2 was measured by radioimmunoassay using an angiotensin-2 antibody (Peninsula Laboratories Inc., Belmont, Calif.). The sensitivity of the assay is 1.0 pg/tube. The 500-fold diluted angiotensin-2 antibody (100 μL) was added to the sample (400 μL) and standard tubes that were incubated 24 hours at 4° C.
# Zucker Fatty Rats (ZFR) [2] = assay: Intraperitoneal Glucose Tolerance Test (ipGTT); type: in vivo; details: Experiment 2; for insulin concentration one hour after the glucose challenge: glucose 2.5 g/kg i.p.; for Baseline insulin concentration / average baseline glucose level: ipGTT baseline
# Description: During the ipGTT, glucose (2.5 g/kg BW) was injected intraperitoneally (i.p.) to challenge the tolerance to glucose. Drops of blood were obtained from the tail at 0, 30, 60, 120, 180 and 240 minutes post injection. Glucose was estimated using commercial glucose strips (Lifescan, One Touch Ultra, […], Calif.).
# DNA fragmentation = DNA fragmentation in liver and kidney; type: in vivo, Zucker Fatty Rats; details: Experiment 2; for DNA Fragmentation, Kidney / DNA Fragmentation, Liver: percentage of total DNA in the supernatant fraction
# Description: Frozen liver and kidney samples were homogenized in lysis buffer (5 mM Tris-HCl, 20 mM EDTA, 0.5% Triton X-100, pH 8.0). Homogenates were centrifuged at 27,000 g for 20 min to separate intact chromatin in the pellet from fragmented DNA in the supernatant fraction. Pellets were re-suspended in 0.5 M perchloric acid and 5.5 M perchloric acid was added to supernatant samples to reach a concentration of 0.5 M. Samples were heated at 90° C. for 15 min and centrifuged at 1,500 g for 10 min to remove protein. Resulting supernatants were reacted with diphenylamine for 16-20 h at room temperature. Absorbance was measured at 600 nm. DNA fragmentation in control samples was expressed as percentage of total DNA appearing in the supernatant fraction. Treatment effects are reported as percent of control fragmentation.
# RAS = assay: Losartan challenge (decrease in SBP to estimate activity of the RAS); type: in vivo, Zucker Fatty Rats; details: losartan 40 mg/kg orally
# From the text: Three and six hours after lavage, SBP was remeasured. The decreased SBP after losartan was used to estimate activity of the RAS.
# Organ weights = type: in vivo, Zucker Fatty Rats; details: Experiment 2, after sacrifice, in g (unit assumed)
# Description: Organ weights were measured immediately after sacrifice of the rats.
# adiponectin = assay: Cytokine assay (ELISA), adiponectin; type: in vivo, Zucker Fatty Rats; details: Experiment 2
# Description: as §1
# TNF-α = assay: Cytokine assay (ELISA), TNF-α; type: in vivo, Zucker Fatty Rats; details: Experiment 2
# Description: as §1
# [3] = test system: Thiobarbituric acid-reactive substances (TBARS); assay: Lipid peroxidation (TBARS) in hepatic and kidney homogenates; type: in vivo, Zucker Fatty Rats; details: Experiment 2
# Description: Thiobarbituric acid-reactive substances (TBARS) as an index of lipid peroxidation were determined on hepatic and kidney homogenates from control and treated and malondialdehyde (MDA) was used as the standard.
# [4] = Hi Asta, astaxanthin 25 mg/kg in feed
# [5] = Lo Asta, astaxanthin 5 mg/kg in feed
# [6] = Experiment 2, Hi Asta, astaxanthin 25 mg/kg in feed
# [7] = Experiment 2, Lo Asta, astaxanthin 5 mg/kg in feed
smiles,measurement,setting,value
"CC1=C(/C=C/C(C)=C/C=C/C(C)=C/C=C/C=C(C)/C=C/C=C(C)/C=C/C2=C(C)C(=O)[C@@H](O)CC2(C)C)C(C)(C)C[C@H](O)C1=O [Asta, astaxanthin]",IL-6,IL-6; [4],433.0 ± 9.3
same,IL-6,IL-6; [5],470.0 ± 21^
same,SBP over the last month vs control,Zucker Fatty Rats (ZFR) [1]; [4],significantly lower SBP
same,SBP over the last month vs control,Zucker Fatty Rats (ZFR) [1]; [5],tendency for the SBP to be lower
same,SBP after heat stress,Zucker Fatty Rats (ZFR) [1]; [4],133.5 ± 1.5 mm Hg
same,SBP after heat stress,Zucker Fatty Rats (ZFR) [1]; [5],140.0 ± 2.0 mm Hg
same,DBP,Zucker Fatty Rats (ZFR) [1]; [6],102.0 ± 2.0 mm Hg
same,SBP,Zucker Fatty Rats (ZFR) [1]; [6],132.0 ± 1.8 mm Hg
same,Cardiac rate,Zucker Fatty Rats (ZFR) [1]; [6],401.0 ± 10.6
same,DBP,Zucker Fatty Rats (ZFR) [1]; [7],108.0 ± 2.1 mm Hg
same,SBP,Zucker Fatty Rats (ZFR) [1]; [7],134.0 ± 1.6 mm Hg
same,Cardiac rate,Zucker Fatty Rats (ZFR) [1]; [7],387.0 ± 8.6
same,SBP at the end of study (75 days) vs Lo Asta group,Zucker Fatty Rats (ZFR) [1]; [6],significantly lower than in the Lo Asta group
same,average SBP vs control from 40 days to end of study,Zucker Fatty Rats (ZFR) [1]; [6],significantly lower than control
same,average SBP vs control from 40 days to end of study,Zucker Fatty Rats (ZFR) [1]; [7],significantly lower than control
same,Angio 2,angiotensin-2; [6],177.0 ± 5.2 pg/mL
same,Angio 2,angiotensin-2; [7],197.0 ± 7.2 pg/mL
same,insulin concentration one hour after the glucose challenge,Zucker Fatty Rats (ZFR) [2]; [4],2.23 ng/mL
same,insulin concentration one hour after the glucose challenge,Zucker Fatty Rats (ZFR) [2]; [5],2.15 ng/mL
same,Baseline insulin concentration,Zucker Fatty Rats (ZFR) [2]; [4],0.90 ng/mL
same,average baseline glucose level,Zucker Fatty Rats (ZFR) [2]; [4],406 mg/dL
same,Baseline insulin concentration,Zucker Fatty Rats (ZFR) [2]; [5],0.80 ng/mL
same,average baseline glucose level,Zucker Fatty Rats (ZFR) [2]; [5],346 mg/dL
same,area under the curve after glucose challenge vs control,"Zucker Fatty Rats (ZFR) [2]; six rats per group, Hi Asta, astaxanthin 25 mg/kg in feed",statistically significant lower average reading than control
same,"DNA Fragmentation (% Control), Kidney",DNA fragmentation; [4],100 % Control
same,"DNA Fragmentation (% Control), Liver",DNA fragmentation; [4],103 % Control
same,"DNA Fragmentation (% Control), Kidney",DNA fragmentation; [5],102 % Control
same,"DNA Fragmentation (% Control), Liver",DNA fragmentation; [5],108 % Control
same,"DNA Fragmentation, Kidney",DNA fragmentation; [4],4.3 ± 0.48
same,"DNA Fragmentation, Liver",DNA fragmentation; [4],4.1 ± 0.33
same,"DNA Fragmentation, Kidney",DNA fragmentation; [5],4.4 ± 0.37
same,"DNA Fragmentation, Liver",DNA fragmentation; [5],4.3 ± 0.38
same,Losartan: decrease in SBP after losartan challenge,"RAS; Experiment 1, survivors after heat stress, Hi Asta, astaxanthin 25 mg/kg in feed",28.0 ± 2.5
same,Losartan: decrease in SBP after losartan challenge,"RAS; Experiment 1, survivors after heat stress, Lo Asta, astaxanthin 5 mg/kg in feed",38.0 ± 3.2
same,Losartan: decrease in SBP after losartan challenge,RAS; [6],27.5 ± 1.3 mm Hg
same,Losartan: decrease in SBP after losartan challenge,RAS; [7],33.8 ± 2.8 mm Hg
same,"Organ weight, Epidydimal fat pad",Organ weights; [4],21.7 ± 12
same,"Organ weight, Kidney (left)",Organ weights; [4],2.4 ± 0.08
same,"Organ weight, Kidney (right)",Organ weights; [4],2.5 ± 0.10
same,"Organ weight, Liver",Organ weights; [4],43.3 ± 2.3
same,"Organ weight, Epidydimal fat pad",Organ weights; [5],19.3 ± 0.9
same,"Organ weight, Kidney (left)",Organ weights; [5],2.5 ± 0.16
same,"Organ weight, Kidney (right)",Organ weights; [5],2.5 ± 0.34
same,"Organ weight, Liver",Organ weights; [5],40.4 ± 2.4
same,Adiponectin,adiponectin; [4],4.03 ± 0.40
same,Adiponectin,adiponectin; [5],4.11 ± 0.27
same,TNF-α,TNF-α; [4],294.0 ± 13.0
same,TNF-α,TNF-α; [5],349.0 ± 11.9
same,"Lipid peroxidation, Kidney",[3]; [4],3.5 ± 0.30 nmoles MDA/mg protein
same,"Lipid peroxidation, Liver",[3]; [4],3.9 ± 0.46 nmoles MDA/mg protein
same,"Lipid peroxidation, Kidney",[3]; [5],3.9 ± 0.48 nmoles MDA/mg protein
same,"Lipid peroxidation, Liver",[3]; [5],4.7 ± 0.53 nmoles MDA/mg protein
